# Earlier results as cited in patent US20070122363A1, “CORPOREAL DELIVERY OF CAROTENOIDS” (priority 2005, published 2007).
# Conditions: 50 mg daily, about 22,000 male physicians, versus placebo
structure (smiles),measurement,value
"CC1=C(/C=C/C(C)=C/C=C/C(C)=C/C=C/C=C(C)/C=C/C=C(C)/C=C/C2=C(C)CCCC2(C)C)C(C)(C)CCC1 [beta-carotene, beta, beta-carotene]",adverse health effects,no adverse health effects
